# Measured values: patent US6492137B1, “Response element compositions and assays employing same” (The Salk Institute for Biological Studies, priority 1989, dated 2002)
# Biological target: T1, RARα (Homo sapiens, UniProt P10276)
# T1 sequence (P10276 1-462): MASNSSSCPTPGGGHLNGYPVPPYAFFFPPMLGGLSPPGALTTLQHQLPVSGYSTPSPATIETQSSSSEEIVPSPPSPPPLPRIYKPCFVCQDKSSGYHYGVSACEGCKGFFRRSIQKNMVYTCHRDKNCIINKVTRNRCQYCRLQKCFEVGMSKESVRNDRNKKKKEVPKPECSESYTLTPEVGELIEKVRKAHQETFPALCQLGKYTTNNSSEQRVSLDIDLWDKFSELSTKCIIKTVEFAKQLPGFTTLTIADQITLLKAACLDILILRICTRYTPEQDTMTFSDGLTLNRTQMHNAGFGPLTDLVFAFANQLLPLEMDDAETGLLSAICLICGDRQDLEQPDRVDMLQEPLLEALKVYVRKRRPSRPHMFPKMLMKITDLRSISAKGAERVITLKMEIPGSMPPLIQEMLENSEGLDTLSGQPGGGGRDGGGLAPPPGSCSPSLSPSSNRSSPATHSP
# Test: ΔSV-CAT reporter cotransfection assay in CV-1 cells with RARα expression plasmid, ±RA
# Format: cell-based
# Parameters: expressed in transfected cells; host or cells: CV-1 (monkey kidney)
# Conditions: RA 1 μM
# Text: Receptor expression plasmids used in the following cotransfection assays have been described previously (pRShTRβ [see Thompson, et al., Proc. Natl. Acad. Sci. U.S.A. 86: 3494-3498 (1989)]; pRShRARα [see Giguere, et al., Nature 330: 624-629 (1987)]; pRShRARβ and pRshRARγ [see Ishikawa, et al., Mol. Endocrinol, 4: 837-844 (1990)]; and pRShVDR, [Schule, et al., Cell 61: 497-504 (1990)]. A basal reporter plasmid ΔSV-CAT was constructed by replacing the TK promoter in TK-CAT [Damm, et al., Nature 339: 593-597 (1989)] with the SphI-HindIII fragment of the SV40 early promoter. All of the recombinant CAT reporter plasmids used herein harbor a single copy of the indicated oligonucleotides at the unique HindIII site upstream of the SV40 promoter. Identity of the inserted oligonucleotides was confirmed by sequencing. To improve production of receptor proteins in COS cells, a new eukaryotic expression vector pCMX was prepared by modifying the plasmid CDM8 [Seed, B., Nature 329: 840-842 (1987)]. The CDM8 was cut with MluI and StuI in order to release the DNA fragment encoding the CMV/T7 promoter, SV40 small t intron/poly A signal, polyoma virus enhancer/origin, and SV40 enhancer/origin. The resulting fragment was ligated to a larger fragment of PvuII-digested PUC19. An internal deletion was introduced between unique BamHI and BclI sites present in the DCM8 portion. The stuffer sequence flanked by XbaI sites was replaced with a synthetic polylinker coding for 5′-KpnI/Asp718-EcoRV-BamHI -MscI-NheI-3′, followed by a stretch of 5′-[…]-3′ (SEQ ID NO:48) which can function as a universal termination signal for protein translation. The coding sequence of the luciferase [de Wet, et al., Mol. Cell. Biol. 7: 725-737 (1987)] and human TRβ, RARα, and VDR was placed in the polylinker region of the pCMX, generating pCMX-LUC, Pcmx-Htrβ, pCMX-hRARα, and pCMX-hVDR, respectively. The translation start site of the RARα was modified to […] by attaching the synthetic linker encoding a consensus translation start signal [Hollenberg, et al., Cell 55: 899-906 (1988)]. […]
substance,measurement,value
"MHC-N: 23-nucleotide core of the wild-type sequence (MHC-TRE) (SEQ ID NO:14) (AGCTGGAGGTGACAGGAGGACAGCAAGCT; DNA, backbone not given here; further chemistry not fully specified)",RA response (in words),not RA response
